{"source": "patent US8580526B2", "about": "“Methods of using GPR119 receptor to identify compounds which stimulate glucose-dependent insulinotropic peptide secretion” (Arena Pharmaceuticals, Inc., priority 2006, dated 2013)", "key": {"[1]": {"target": "T1, GPR119 (Mus musculus, UniProt Q7TQP3)", "T1 sequence (Q7TQP3 1-335)": "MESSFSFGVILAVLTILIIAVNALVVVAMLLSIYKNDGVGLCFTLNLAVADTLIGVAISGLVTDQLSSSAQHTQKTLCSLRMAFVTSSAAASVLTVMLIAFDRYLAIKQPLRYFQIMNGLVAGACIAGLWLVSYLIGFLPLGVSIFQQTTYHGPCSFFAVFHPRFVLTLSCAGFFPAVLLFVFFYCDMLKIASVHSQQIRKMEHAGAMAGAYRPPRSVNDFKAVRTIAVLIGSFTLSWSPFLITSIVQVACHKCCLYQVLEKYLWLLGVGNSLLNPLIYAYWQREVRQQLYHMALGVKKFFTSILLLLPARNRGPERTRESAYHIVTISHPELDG", "assay": "Pharmacodynamic analysis of effect of oral GPR119 agonist on blood (plasma total) GIP level in wild-type mice, rodent GIP ELISA", "format": "in vivo, C57blk/6 male mice", "design": "Effect of Administration of GPR119 Agonist on Blood GIP Level in Wild-Type Mice; endogenous in cells; host or cells: whole animal: C57blk/6 male mice, oral dosing", "conditions": "20 mg/kg per orally, 30 min before glucose bolus 3 g/kg, FIG. 1A", "experimental": "A. C57blk/6 male mice were fasted for 18 hours, and randomly assigned into fourteen groups with n=6 for each group. Mice were administered per orally with vehicle (PET; 80% PEG400, 10% ethanol, 10% Tween80) or with a GPR119 agonist in accordance with the present invention (Compound 1; (2-Fluoro-4-methanesulfonyl-phenyl)-{6-[4-(3-isopropyl-1,2,4]oxadiazol-5-yl)-piperidin-1-yl]-5-nitro-pyrimidin-4-yl}-amine) at 20 mg/kg, as indicated in FIG. 1A. Thirty minutes after treatment, a glucose bolus at 3 g/kg were delivered per orally, and plasma were collected at 0 (no glucose bolus), 2, 5, 10, 20, 40 and 60 minutes after glucose bolus. Plasma GIP levels were determined by using a rodent GIP ELISA kit purchased from Linco Research Laboratory [Rat/Mouse Gastric Inhibitory Polypeptide (Total) ELISA Catalog #EZRMGIP-55K], following instructions provided by the supplier. […]\nB. C57blk/6 male mice were fasted for 18 hours, and randomly assigned into fourteen groups with n=6 for each group. […] Plasma GIP levels were determined by using a rodent GIP ELISA kit purchased from Linco Research Laboratory [Rat/Mouse Gastric Inhibitory Polypeptide (Total) ELISA Catalog #EZRMGIP-55K], following instructions provided by the supplier. […] Mean values of GIP concentration were calculated based on results with six mice in each group and shown as mean±SEM. […]"}, "[2]": {"target": "T1, GPR119", "assay": "Effect of oral GPR119 agonist on blood GIP level in GPR119-deficient (knockout) mice compared to wild-type mice, rodent GIP ELISA", "format": "in vivo, GPR119-deficient male mice and wild-type littermates", "design": "endogenous in cells; host or cells: whole animal: GPR119-deficient male mice and wild-type littermates, oral dosing", "conditions": "20 mg/kg per orally, FIG. 2A", "experimental": "A. GPR119-deficient male mice and wild-type littermates were fasted for 18 hours. Mice were administered per orally with vehicle (PET; 80% PEG400, 10% ethanol, 10% Tween80) or with a GPR119 agonist in accordance with the present invention (Compound 1; (2-Fluoro-4-methanesulfonyl-phenyl)-{6-[4-(3-isopropyl-[1,2,4]oxadiazol-5-yl)-piperidin-1-yl]-5-nitro-pyrimidin-4-yl}-amine) at 20 mg/kg, as indicated (n=5). Thirty minutes after treatment, blood (100 microliter) was collected via retro orbital vein of the eye (time 0) followed by a glucose bolus at 3 g/kg (per orally). Five minutes after I delivering glucose, another blood sample (100 microliter) was collected (time 5 minutes). Plasma were collected after centrifugation and GIP levels were determined by using a rodent GIP ELISA kit purchased from Linco Research Laboratory [Rat/Mouse Gastric Inhibitory Polypeptide (Total) ELISA Catalog #EZRMGIP-55K], following instructions provided by the supplier. […]\nB. GPR119-deficient male mice and wild-type littermates were fasted for 18 hours. […] Plasma were collected after centrifugation and GIP levels were determined by using a rodent GIP ELISA kit purchased from Linco Research Laboratory [Rat/Mouse Gastric Inhibitory Polypeptide (Total) ELISA Catalog #EZRMGIP-55K], following instructions provided by the supplier. […]"}}}
{"smiles": "CC(C)c1noc(C2CCN(c3ncnc(Nc4ccc(S(C)(=O)=O)cc4F)c3[N+](=O)[O-])CC2)n1", "note": "[Compound 1, (2-Fluoro-4-methanesulfonyl-phenyl)-{6-[4-(3-isopropyl-[1,2,4]oxadiazol-5-yl)-piperidin-1-yl]-5-nitro-pyrimidin-4-yl}-amine]", "values": [{"measurement": "glucose-dependent and glucose-independent level of GIP in the blood", "setting": "[1]; plasma at 0 (no glucose bolus) to 60 min", "result": "increased both a glucose-dependent and a glucose-independent level of GIP"}, {"measurement": "plasma total GIP", "setting": "[1]; plasma at 0 (no glucose bolus), 2, 5, 10, 20, 40, 60 min, vs vehicle PET", "result": "stimulated plasma total GIP"}, {"measurement": "dependence on GPR119 of the increase of glucose-independent and glucose-dependent level of GIP in the blood", "setting": "[2]; GPR119-deficient vs wild-type mice, time 0 and 5 min after glucose bolus 3 g/kg", "result": "functional GPR119 receptor was necessary"}, {"measurement": "plasma total GIP in wild-type mice", "setting": "[2]; blood 30 min after treatment (time 0) and 5 min after glucose bolus 3 g/kg", "result": "stimulated plasma total GIP in the wild-type mice"}]}
